Values after ≈ are worked out from the molar mass of the structure shown. Square brackets hold non-standard residues; d marks the D form. dOrn = NCCC[C@@H](N)C(=O)O
Assays:
[1] = tested on: human red blood cells; assay: Hemolytic activity on human red blood cells
Method: For comparison, the inventors also determined the hemolytic activity after 18 hours at 37° C. Hemolysis can be determined with red blood cells (RBC) from various species including human red blood cells (hRBC).
(§1) The coupling procedure used 5 equivalents of Fmoc-D-amino acid or Fmoc-L-amino acid and HCTU (O-(1H-6-chlorobenzotriazole-1-yl)-1,1,3,3-tetramethyluronium hexafluorophosphate) and 6-Cl-HOBt (1-hydroxy-6-chloro-benztriazole) at 4.5 equivalents in DMF (Fisher Scientific, Denver, Colo.) and N-diisopropylethylamine (DIPEA) 10 equivalents (Oakwood Products, Inc., Estill, S.C.) in N-methyl-2-pyrrolidinone (NMP) (Fisher Scientific, Denver, Colo.) with the first and second couplings at room temperature for 30 min each. The deprotection procedure (removal of Fmoc protecting group) was carried out by treatment of the resin with 0.1 M HOBt (1-hydroxybenzotriazole) in DMF with 20% piperidine for 30 min. […] The resin was removed by filtration and peptide was precipitated with ice-cooled ethyl ether on ice for 15 min. Ether was decanted, the peptide was washed twice with ether and redissolved in acetonitrile/water (1:1, with 0.2% TFA) and the solution lyophilized to obtain the crude peptide. • Analytical and Preparative Purification by Reversed-Phase Chromatography: Analytical RP-HPLC: Column, Luna C18 (2), 250×4.6 mm I.D., 5 μm particle size, 100 Å pore size from Phenomenex (Torrance, Calif.). Run conditions: linear AB gradient (1% acetonitrile/min, starting from 2% acetonitrile) at a flow-rate of 1 ml/min, where eluent A is 0.2% aq. TFA and eluent B is 0.18% TFA in acetonitrile; temperature, 30° C. Preparative RP-HPLC: Peptides were dissolved in 0.2% aq. TFA containing 2% acetonitrile to a final concentration of 10 mg/ml. Following filtration through a 0.45 μm Millipore filter and subsequently through a 0.22 μm filter, the peptide solutions were loaded onto the column via multiple 20-ml injections into a 20-ml injection loop at a flow-rate of 10 ml/min. Column, Luna C18 (2), 250×30 mm I.D., 5 um particle size, 100 Å pore size from Phenomenex. Run conditions: 2% acetonitrile/min gradient up to an acetonitrile concentration 10% below that required to elute the peptide during analytical RP-HPLC, then shallow gradient elution (0.05% or 0.1% acetonitrile/min depending on the complexity of impurities near the product of interest on the analytical run of the crude peptide) at a flow-rate of 10 ml/min (same eluents as shown above for analytical RP-HPLC); at room temperature. • Temperature Profiling of Peptides on Reversed-phase HPLC to Measure Dimerization and Oligomerization: Purified peptides were analyzed on an Agilent 1200 series liquid chromatograph for temperature profiling using a Zorbax 300 SB-C8 column (150 mm×2.1 mm I.D.; 5 μm particle size, 300 Å pore size) from Agilent Technologies. […] Temperature profiling was carried out on peptide mixtures run at each temperature in 2° C. increments from 5° C. to 41° C. and 10° C. increments from 5° C. to 75° C. Twenty minutes was allowed between runs for temperature equilibration. • Characterization of Helical Structure: The mean residue molar ellipticities of peptides were determined by circular dichroism (CD) spectroscopy, using a Jasco J-815 spectropolarimeter (Jasco Inc. Easton, Md., USA) at 5° C. under KP buffer (50 mM NaH2PO4/Na2HPO4/100 mM KCl, pH 7.0) as well as in the presence of an α-helix inducing solvent, 2,2,2-trifluoroethanol, TFE, (50 mM NaH2PO4/Na2HPO4/100 mM KCl, pH 7.0 buffer/50% TFE). A 10-fold dilution of an approximately 500 μM stock solution of the peptide analogs was loaded into a 0.1 cm quartz cell and its ellipticity scanned from 195 to 250 nm.

[2] = tested on: Acinetobacter baumannii isolates resistant to classical antibiotics; format: cell-based; conditions: isolates resistant to classical antibiotics
Description: Thus, shortening the number of carbon atoms between the side-chain amino group and the α-carbon atom from four (Lys) to one (diaminopropionic acid) had very little effect on antibacterial activity (Table 2). We also determined the antibacterial activity of our five AMPs against 20 additional Acinetobacter baumannii isolates from four continents, 12 different countries and 17 different cities that were resistant to 18 different antibiotics. […] Thus, it is very clear that changing the type of positively-charged residue on the polar face of these AMPs had very little effect on the antibacterial activities.

[3] = tested on: Acinetobacter baumannii strains resistant to Polymyxin B and Colistin; conditions: strains resistant to Polymyxin B and Colistin, 24 h
Description: as §1

[4] = target: the molecule itself; assay: RP-HPLC temperature profiling, self-association (dimerization/oligomerization) against random coil control RC
[5] = target: serum proteins; assay: cell-based or functional assay

MIC 101887 [2] [µM] | MIC 961997 [2] [µM] | MIC 963618 [2] [µM] | MIC 964304 [2] [µM] | MIC 977751 [2] [µM] | MIC 981653 [2] [µM] | MIC 1002956 [2] [µM] | MIC 1007660 [2] [µM] | MIC 1010282 [2] [µM] | MIC 1035166 [2] [µM] | Molecule | HC50 Fold Improvement [1] | further results
0.7 (≈ 1.89 µg/mL) | 0.7 (≈ 1.89 µg/mL) | 0.7 (≈ 1.89 µg/mL) | 1.5 (≈ 4.05 µg/mL) | 0.7 (≈ 1.89 µg/mL) | 0.7 (≈ 1.89 µg/mL) | 0.7 (≈ 1.89 µg/mL) | 0.7 (≈ 1.89 µg/mL) | 0.7 (≈ 1.89 µg/mL) | 0.7 (≈ 1.89 µg/mL) | CC(=O)N[C@H](CCCCN)C(=O)N[C@H](CC(C)C)C(=O)N[C@@H](CCN)C(=O)N[C@H](CO)C(=O)N[C@H](CC(C)C)C(=O)N[C@H](CC(C)C)C(=O)N[C@@H](CCN)C(=O)N[C@@H](C(=O)N[C@H](CC(C)C)C(=O)N[C@H](CO)C(=O)N[C@@H](CCN)C(=O)N[C@H](C)C(=O)N[C@H](CCCCN)C(=O)N[C@H](C)C(=O)N[C@H](C)C(=O)N[C@H](CCCCN)C(=O)N[C@H](CC(C)C)C(=O)N[C@@H](CCN)C(=O)N[C@@H](C(=O)N[C@H](CC(C)C)C(=O)N[C@H](CC(C)C)C(=O)N[C@@H](CCN)C(=O)N[C@H](C)C(=O)N[C@H](CC(C)C)C(=O)N[C@H](CO)C(=O)N[C@@H](CCN)C(N)=O)[C@H](C)O)[C@H](C)O [D86(Lys^1-6Dab-1), Ac-KL(L-Dab)SLL(L-Dab)TLS(L-Dab)AKAAKL(L-Dab)TLL(L-Dab)ALS(L-Dab)-amide] | >186 | hemolytic activity against red blood cells from four blood donors [1]: very little hemolytic activity; HC50 ([1]; red cells of human, 18 h): >742 µM
0.7 (≈ 1.88 µg/mL) | 1.5 (≈ 4.03 µg/mL) | 0.4 (≈ 1.07 µg/mL) | 0.7 (≈ 1.88 µg/mL) | 0.7 (≈ 1.88 µg/mL) | 0.4 (≈ 1.07 µg/mL) | 0.4 (≈ 1.07 µg/mL) | 0.4 (≈ 1.07 µg/mL) | 0.7 (≈ 1.88 µg/mL) | 0.7 (≈ 1.88 µg/mL) | CC(=O)N[C@H](CCCCN)C(=O)N[C@H](CC(C)C)C(=O)N[C@@H](CCN)C(=O)N[C@H](CO)C(=O)N[C@H](CC(C)C)C(=O)N[C@H](CC(C)C)C(=O)N[C@@H](CCN)C(=O)N[C@@H](C(=O)N[C@H](CC(C)C)C(=O)N[C@H](CO)C(=O)N[C@@H](CCN)C(=O)N[C@H](C)C(=O)N[C@H](CCCCN)C(=O)N[C@H](C)C(=O)N[C@H](C)C(=O)N[C@H](CCCCN)C(=O)N[C@H](CC(C)C)C(=O)N[C@@H](CCN)C(=O)N[C@@H](C(=O)N[C@H](CC(C)C)C(=O)N[C@H](CC(C)C)C(=O)N[C@@H](CCN)C(=O)N[C@H](C)C(=O)N[C@H](CC(C)C)C(=O)N[C@H](CO)C(=O)N[C@H](CO)C(N)=O)[C@H](C)O)[C@H](C)O [D102(Lys^1Ser^26-5Dab-1), Ac-KL(L-Dab)SLL(L-Dab)TLS(L-Dab)AKAAKL(L-Dab)TLL(L-Dab)ALS(Ser)-amide] | >177 | MIC MB9941 [3]: 0.4 µM (≈ 1.07 µg/mL); MIC MB9949 [3]: 0.7 µM (≈ 1.88 µg/mL); MIC MB9951 [3]: 0.7 µM (≈ 1.88 µg/mL); MIC MB9952 [3]: 0.7 µM (≈ 1.88 µg/mL); MIC MB9953 [3]: 1.4 µM (≈ 3.76 µg/mL); MIC MB9955 [3]: 0.7 µM (≈ 1.88 µg/mL); MIC MB9963 [3]: 0.7 µM (≈ 1.88 µg/mL)
– | – | – | – | – | – | – | – | – | – | Ac-[dK][dL][dOrn][dS][dL][dL][dOrn][dT][dL][dS][dOrn][dA][dK][dA][dA][dK][dL][dOrn][dT][dL][dL][dOrn][dA][dL][dS][dOrn]-NH2 (SMILES CC(=O)N[C@H](CCCCN)C(=O)N[C@H](CC(C)C)C(=O)N[C@H](CCCN)C(=O)N[C@H](CO)C(=O)N[C@H](CC(C)C)C(=O)N[C@H](CC(C)C)C(=O)N[C@H](CCCN)C(=O)N[C@@H](C(=O)N[C@H](CC(C)C)C(=O)N[C@H](CO)C(=O)N[C@H](CCCN)C(=O)N[C@H](C)C(=O)N[C@H](CCCCN)C(=O)N[C@H](C)C(=O)N[C@H](C)C(=O)N[C@H](CCCCN)C(=O)N[C@H](CC(C)C)C(=O)N[C@H](CCCN)C(=O)N[C@@H](C(=O)N[C@H](CC(C)C)C(=O)N[C@H](CC(C)C)C(=O)N[C@H](CCCN)C(=O)N[C@H](C)C(=O)N[C@H](CC(C)C)C(=O)N[C@H](CO)C(=O)N[C@H](CCCN)C(N)=O)[C@H](C)O)[C@H](C)O, Designed 26-residue AMP; also called D85(6Orn-1)) [D85(Lys1-6Orn-1)] | – | PA (self-association parameter) [4]: 4.1 min; MIC (µM) against A. baumannii strain 649 in 25% human serum (no serum: 0.4) [5]: 0.2 µM
